From patent publication US20220372008A1 (VIDYASIRIMEDHI INSTITUTE OF SCIENCE AND TECHNOLOGY, priority 2019, published 2022)
Each block holds one molecule with its values, some of them ahead of it.

Columns and labels:
firefly luciferase = firefly luciferase (Photinus pyralis, UniProt P08659)
Protocol: The pure luciferin and the purified luciferin derivatives, which are derived from the synthesis and purification methods, reacts with the firefly luciferase, and then the emission wavelength is measured.
The reaction between the luciferin derivatives of the present disclosure and the firefly luciferase can emit the light.

[1] = assay type: physicochemical
Protocol: The term “thermostable dehalogenase” used herein refers to the dehalogenase or HadA, which is reengineered or modified, particularly modified on the surface of a wild-type dehalogenase or HadA. The reengineered or modified dehalogenase or HadA, which is called a thermostable HadA or HadA G513T, has an improvement on a temperature stability. The catalytic efficiency of the thermostable HadA or HadA G513T is in a broader range of temperature from 25-50° C. Further, the wild-type dehalogenase or HadA is a dechlorinating monooxygenase that can catalyze the elimination of nitro- and halides (F, Cl, Br, I) group from nitro- and halogenated phenols substrate. The wild type HadA can catalyze the reaction at 25° C. for 24 h. Whereas the reaction at higher temperature (>30° C.), the half-life of wild type HadA is dramatically decrease for 20 min. In accordance with various embodiments, the present disclosure relates to luciferin derivatives and a method for synthesis of the luciferin derivatives.
The thermostable dehalogenase is a modified HadA, particularly HadA G513T (Thermostable dehalogenase; HadA G513T), containing an amino acid sequence, which is set forth in SEQ ID NO.1 as shown in FIG. 8. The thermostable dehalogenase or HadA G513T is able to catalyze in a range of temperature from 25-50° C. and its half-life at 50° C. is 200 min. However, […]

Sequence of firefly luciferase (P08659 whole entry): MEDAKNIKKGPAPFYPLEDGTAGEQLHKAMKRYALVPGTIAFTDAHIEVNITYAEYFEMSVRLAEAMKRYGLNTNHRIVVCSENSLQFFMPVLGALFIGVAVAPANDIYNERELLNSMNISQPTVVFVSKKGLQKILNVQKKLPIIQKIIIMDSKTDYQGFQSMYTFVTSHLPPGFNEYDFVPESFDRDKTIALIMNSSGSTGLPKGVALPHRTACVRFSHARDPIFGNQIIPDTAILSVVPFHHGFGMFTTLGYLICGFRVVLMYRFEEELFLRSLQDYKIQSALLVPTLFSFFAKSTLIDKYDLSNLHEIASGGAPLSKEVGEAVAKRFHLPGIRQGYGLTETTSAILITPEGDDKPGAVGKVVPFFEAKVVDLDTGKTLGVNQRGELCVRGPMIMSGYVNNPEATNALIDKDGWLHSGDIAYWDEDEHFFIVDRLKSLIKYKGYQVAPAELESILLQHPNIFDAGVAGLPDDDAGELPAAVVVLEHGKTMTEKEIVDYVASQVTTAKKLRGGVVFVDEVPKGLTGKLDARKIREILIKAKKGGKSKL

emitting wavelength as substrate for the firefly luciferase (firefly luciferase; spectrofluorometer under bioluminescent mode): 604 nm
maximum emission wavelength (firefly luciferase; substrate for wild-type firefly luciferase, FIG. 5): 604 nm
Molecule: 7′-bromoluciferin

B1: HadA G513T: modified HadA, thermostable dehalogenase with amino acid sequence SEQ ID NO.1 (protein, listed as Escherichia coli)
chain: MIRTGTQYLESLNDGRNVWVGNEKIDNVATHPKTRDYAQRHADFYDLHHRPDLQDVMTYIDEGGQRRAMQWFGHRDKEQLRRKRKYHETVMREMAGASFPRTPDVNNYVLTTYIDDPAPWETQSIGDDGHIKAGKIVDFIRYAREHDLNCAPQFVDPQMDRSNPDAQERSPGLRVVEKNEKGIVVNGVKAIGTGVAFADWIHIGVFFRPGIPGDQVIFAATPVNTPGVTIVCRESLVKDDKVEHPLAAQGDELDGMTVFENVFIPWSHVFHIGNPNHAKLYPQRVFDWLHYHALIRQMVRAELVAGLAVLITEHIGTNKIPAVQTRVAKLIGFHQAMLAHLIASEELGFHTPGGHYKPNILIYDFGRALYLENFSQMIYELVDLSGRSALIFASEDQWNDDKLNGWFERMNNGPVGRPHDRVKIGRVIRDLFLTDWGSRLFVFENFNGTPLQGIRMLTMQRAEFSGSGPYGKLARQVCGIDSAVTDDTEYRKTADYAKALDAARHQEEVALATAMAI
half-life [1]: 200 min
